pIC50: −log10 of the molar value.
Experiments:
A549 = assay: Antiproliferative activity against human A549 cells assessed as inhibition of cell growth incubated for 48 hrs by MTT assay; assay type: functional, cell-based; details: A549, 48 h
BGC-823 = assay: Antiproliferative activity against human BGC-823 cells assessed as inhibition of cell growth incubated for 48 hrs by MTT assay; assay type: functional, cell-based; details: BGC-823, 48 h
CT26 = assay: Antiproliferative activity against mouse CT26 cells assessed as inhibition of cell growth incubated for 48 hrs by MTT assay; assay type: functional, cell-based; details: CT26, 48 h
Bel-7402 = assay: Antiproliferative activity against human Bel-7402 cells assessed as inhibition of cell growth incubated for 48 hrs by MTT assay; assay type: functional, cell-based; details: Bel-7402, 48 h
MCF7 = assay: Antiproliferative activity against human MCF7 cells assessed as inhibition of cell growth incubated for 48 hrs by MTT assay; assay type: functional, cell-based; details: MCF7, 48 h
Chorioallantoic membrane = assay: Antiangiogenic activity in chicken embryo chorioallantoic membrane assessed as decrease in microvessel density incubated for 48 hrs by microscopic analysis; assay type: functional, tissue-based; details: Gallus gallus
[1] = target: Vascular endothelial growth factor receptor 2 (Mus musculus) (UniProt P35918); assay: Inhibition of VEGFR2 autophosphorylation in mouse BEND3 cells incubated for 2 hrs by Western blotting analysis; assay type: cell-based
Vascular endothelial growth factor receptor 2 (Mus musculus), sequence (P35918 whole entry): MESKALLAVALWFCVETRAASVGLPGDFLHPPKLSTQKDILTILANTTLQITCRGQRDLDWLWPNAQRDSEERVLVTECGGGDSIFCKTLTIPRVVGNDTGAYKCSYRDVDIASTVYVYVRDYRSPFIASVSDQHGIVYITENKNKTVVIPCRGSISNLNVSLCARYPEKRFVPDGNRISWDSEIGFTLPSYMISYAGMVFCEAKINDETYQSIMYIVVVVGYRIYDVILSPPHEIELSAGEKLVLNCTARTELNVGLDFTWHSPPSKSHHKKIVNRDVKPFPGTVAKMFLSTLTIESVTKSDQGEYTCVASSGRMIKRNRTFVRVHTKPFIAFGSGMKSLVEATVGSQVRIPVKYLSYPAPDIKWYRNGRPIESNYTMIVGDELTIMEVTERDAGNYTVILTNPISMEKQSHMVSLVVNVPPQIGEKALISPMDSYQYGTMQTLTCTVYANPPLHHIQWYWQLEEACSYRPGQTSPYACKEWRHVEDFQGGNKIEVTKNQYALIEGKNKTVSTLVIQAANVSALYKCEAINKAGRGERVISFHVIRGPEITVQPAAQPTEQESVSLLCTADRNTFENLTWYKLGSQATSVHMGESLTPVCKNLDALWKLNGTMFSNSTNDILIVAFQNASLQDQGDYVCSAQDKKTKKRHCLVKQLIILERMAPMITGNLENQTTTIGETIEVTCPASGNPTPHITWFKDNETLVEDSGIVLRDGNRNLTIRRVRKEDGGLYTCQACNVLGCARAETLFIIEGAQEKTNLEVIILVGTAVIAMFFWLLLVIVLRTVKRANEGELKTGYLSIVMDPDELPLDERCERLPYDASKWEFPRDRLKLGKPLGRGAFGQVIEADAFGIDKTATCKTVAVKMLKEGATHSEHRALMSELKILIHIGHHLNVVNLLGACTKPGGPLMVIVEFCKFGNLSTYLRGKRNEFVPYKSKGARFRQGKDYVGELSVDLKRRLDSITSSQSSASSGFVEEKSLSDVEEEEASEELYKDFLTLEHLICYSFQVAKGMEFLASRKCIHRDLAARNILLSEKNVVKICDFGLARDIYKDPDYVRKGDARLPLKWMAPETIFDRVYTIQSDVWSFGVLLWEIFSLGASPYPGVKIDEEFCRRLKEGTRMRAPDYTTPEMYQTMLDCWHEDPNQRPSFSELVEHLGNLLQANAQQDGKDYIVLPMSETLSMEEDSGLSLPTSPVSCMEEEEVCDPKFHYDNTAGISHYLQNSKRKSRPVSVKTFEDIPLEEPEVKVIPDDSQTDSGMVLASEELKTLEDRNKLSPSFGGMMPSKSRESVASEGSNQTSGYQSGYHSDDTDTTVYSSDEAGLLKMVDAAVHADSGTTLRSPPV

| Structure (SMILES) | pIC50 (A549) | pIC50 (BGC-823) | pIC50 (CT26) | pIC50 (Bel-7402) | pIC50 (MCF7) | Activity (Chorioallantoic membrane) | inhibition [1] |
| --- | --- | --- | --- | --- | --- | --- | --- |
| CCCCn1c2ccccc2c2cc3cn(-c4ccc(C(F)(F)F)cc4)c[n+]3cc21 | 5.62 | 5.89 | 5.01 | 5.11 | 4.92 | Dose-dependent-effect | Dose-dependent-effect |
| c1ccc(Cn2c3ccccc3c3cc4cn(-c5ccccc5)c[n+]4cc32)cc1 | 5.17 | 5.39 | 5.14 | 4.94 | 5.26 | – | – |
| CN(C)c1ccc(-n2cc3cc4c5ccccc5n(Cc5cccc(Cl)c5)c4c[n+]3c2)cc1 | 4.91 | 4.92 | 4.68 | 5.09 | 5.10 | – | – |
| FC(F)(F)c1ccc(-n2cc3cc4c5ccccc5n(Cc5cccc(Cl)c5)c4c[n+]3c2)cc1 | 4.92 | 5.12 | 5.16 | 4.67 | 5.31 | – | – |
| CN(C)CCn1cc2cc3c4ccccc4n(CCCc4ccccc4)c3c[n+]2c1 | 4.97 | 4.88 | 5.42 | 5.08 | 5.82 | – | – |
| CCCCn1c2ccccc2c2cc3cn(-c4ccc5ccccc5c4)c[n+]3cc21 | 5.08 | 4.84 | 5.31 | 5.24 | 4.90 | – | – |
| COc1ccc(Cn2c3ccccc3c3cc4cn(-c5ccccc5)c[n+]4cc32)cc1 | 4.84 | 4.72 | 4.88 | 4.77 | 5.06 | – | – |
| FC(F)(F)c1ccc(-n2cc3cc4c5ccccc5n(Cc5ccccc5)c4c[n+]3c2)cc1 | 4.63 | 5.96 | 4.80 | 4.79 | 5.04 | – | – |
| FC(F)(F)c1ccc(-n2cc3cc4c5ccccc5n(CCCc5ccccc5)c4c[n+]3c2)cc1 | 4.62 | 4.76 | 5.32 | 5.28 | 5.48 | – | – |
| CCCCn1c2ccccc2c2cc3cn(-c4ccccc4)c[n+]3cc21 | 4.84 | 5.07 | 5.96 | 5.49 | 4.81 | – | – |
| Clc1cccc(Cn2c3ccccc3c3cc4cn(Cc5ccccc5)c[n+]4cc32)c1 | 4.65 | 4.90 | 5.89 | 4.97 | 4.77 | – | – |
| COc1ccc(Cn2c3ccccc3c3cc4cn(-c5ccc(C(F)(F)F)cc5)c[n+]4cc32)cc1 | 5.00 | 5.46 | 4.64 | 5.39 | 4.80 | – | – |
| Fc1ccc(Cn2c3ccccc3c3cc4cn(-c5ccccc5)c[n+]4cc32)cc1 | 4.63 | 4.85 | 5.37 | 4.80 | 4.90 | – | – |
| Cn1c2ccccc2c2cc3cn(-c4cc(F)cc(F)c4)c[n+]3cc21 | 4.91 | 5.46 | 4.79 | 4.72 | 5.04 | – | – |
| CN(C)c1ccc(-n2cc3cc4c5ccccc5n(Cc5ccccc5)c4c[n+]3c2)cc1 | 5.12 | 5.11 | 4.71 | 4.79 | 4.85 | – | – |
| Clc1cccc(Cn2c3ccccc3c3cc4cn(-c5ccccc5)c[n+]4cc32)c1 | 4.97 | 4.98 | 5.24 | 5.74 | 4.99 | – | – |
| CN(C)c1ccc(-n2cc3cc4c5ccccc5n(C)c4c[n+]3c2)cc1 | 4.81 | 4.72 | 4.63 | 4.65 | 5.42 | – | – |
| Cn1c2ccccc2c2cc3cn(-c4cccc(C(F)(F)F)c4)c[n+]3cc21 | 4.66 | 4.75 | 5.09 | 4.96 | 4.70 | – | – |
| FC(F)(F)c1cccc(-n2cc3cc4c5ccccc5n(Cc5cccc(Cl)c5)c4c[n+]3c2)c1 | 5.07 | 4.96 | 4.76 | 5.26 | 5.85 | – | – |
| CN(C)CCn1cc2cc3c4ccccc4n(Cc4ccccc4)c3c[n+]2c1 | 4.93 | 5.55 | 5.05 | 5.08 | 5.34 | – | – |
| FC(F)(F)c1cccc(-n2cc3cc4c5ccccc5n(Cc5ccccc5)c4c[n+]3c2)c1 | 4.68 | 4.69 | 5.11 | 5.46 | 4.94 | – | – |
| Cn1c2ccccc2c2cc3cn(-c4ccccc4)c[n+]3cc21 | 5.11 | 4.90 | 4.74 | 4.74 | 4.70 | – | – |
| c1ccc(Cn2cc3cc4c5ccccc5n(Cc5ccccc5)c4c[n+]3c2)cc1 | 4.67 | 5.47 | 4.80 | 4.88 | 5.60 | – | – |
| COc1ccc(Cn2c3ccccc3c3cc4cn(-c5ccc(N(C)C)cc5)c[n+]4cc32)cc1 | 4.70 | 5.14 | 4.94 | 4.65 | 5.29 | – | – |

— ChEMBL document CHEMBL6083248, “Synthesis, pharmacological evaluation, and modeling of novel quaternary ammonium salts derived from β-carboline containing an imidazole moiety as angiogenesis inhibitors” (Bioorg Med Chem, 2024)
